Measurements as given in patent publication US20070149557A1, “CXCR3 antagonists” (Amgen Inc., priority 2005, published 2007).
pIC50: −log10 of the molar value.

These compounds were tested against T1, CXCR3 (Homo sapiens, UniProt P49682) (assay: 125I-IP-10 binding assay). Details: displacement of 125I-IP-10.
T1 sequence (P49682 1-368): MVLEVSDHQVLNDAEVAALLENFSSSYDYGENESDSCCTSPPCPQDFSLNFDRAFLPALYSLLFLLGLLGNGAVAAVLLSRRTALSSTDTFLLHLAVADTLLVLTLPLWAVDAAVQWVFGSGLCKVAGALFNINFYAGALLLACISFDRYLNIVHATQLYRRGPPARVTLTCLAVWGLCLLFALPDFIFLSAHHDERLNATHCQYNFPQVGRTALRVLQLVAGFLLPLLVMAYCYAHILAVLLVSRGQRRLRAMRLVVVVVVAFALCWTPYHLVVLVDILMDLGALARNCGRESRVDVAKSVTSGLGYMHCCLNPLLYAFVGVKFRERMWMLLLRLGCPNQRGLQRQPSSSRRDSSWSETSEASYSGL
For `NC(=O)c1cc(C(F)(F)F)ccc1N1CCC2(CC1)NCCc1c2[nH]c2ccccc12` [Example 9], the pIC50 was 6.00 to 6.30. In the case of `Clc1cnc(N2CCC3(CC2)NCCc2c3[nH]c3ccccc23)c(Cl)c1` [Example 3], the pIC50 was less than 6.00. With `FC(F)(F)c1ccc(N2CCC3(CC2)NCCc2c3[nH]c3ccccc23)c(C(F)(F)F)c1` [Example 11] the pIC50 was less than 6.00. In the case of `O=[N+]([O-])c1ccc(N2CCC3(CC2)NCCc2c3[nH]c3ccccc23)c(Cl)c1` [Example 18], the pIC50 was less than 6.00. With `COC(=O)c1ccc(N2CCC3(CC2)NCCc2c3[nH]c3ccccc23)c(Cl)c1` [Example 19] the pIC50 was less than 6.00. `Cc1cc(C(F)(F)F)cnc1N1CCC2(CC1)NCCc1c2[nH]c2ccccc12` [Example 4] gave a pIC50 of less than 6.00. In the case of `FC(F)(F)c1ccc(N2CCC3(CC2)NCCc2c3[nH]c3ccccc23)nc1` [Example 2], the pIC50 was less than 6.00. For `O=[N+]([O-])c1cc(C(F)(F)F)ccc1N1CCC2(CC1)NCCc1c2[nH]c2ccccc12` [Example 8], the pIC50 was less than 6.00. Compound `FC(F)(F)c1ccc(N2CCC3(CC2)NCCc2c3[nH]c3ccccc23)cc1` [Example 7] has a pIC50 of less than 6.00. Work on `Fc1cc(C(F)(F)F)ccc1N1CCC2(CC1)NCCc1c2[nH]c2ccccc12` [Example 12] yielded a pIC50 of less than 6.00. `FC(F)(F)c1ccc(N2CCC3(CC2)NCCc2c3[nH]c3ccccc23)c(Cl)c1` [Example 5] showed a pIC50 greater than 6.30. `FC(F)(F)c1cnc(N2CCC3(CC2)NCCc2c3[nH]c3ccccc23)c(Cl)c1` [Example 1] was tested, and the pIC50 was greater than 6.30. Compound `O=[N+]([O-])c1cc(C(F)(F)F)cc(Cl)c1N1CCC2(CC1)NCCc1c2[nH]c2ccccc12` [Example 15] has a pIC50 greater than 6.30. `FC(F)(F)c1ccc(Cl)c(N2CCC3(CC2)NCCc2c3[nH]c3ccccc23)c1` [Example 6] was tested, and the pIC50 was less than 6.00. Work on `FC(F)(F)c1ccc(N2CCC3(CC2)NCCc2c3[nH]c3ccccc23)c(Br)c1` [Example 13] yielded a pIC50 of less than 6.00. Compound `Clc1cc(I)ccc1N1CCC2(CC1)NCCc1c2[nH]c2ccccc12` [Example 17] has a pIC50 of less than 6.00. `Clc1ccc(N2CCC3(CC2)NCCc2c3[nH]c3ccccc23)c(Cl)c1` [Example 16] gave a pIC50 of less than 6.00. Compound `FC(F)(F)c1cc(Cl)c(N2CCC3(CC2)NCCc2c3[nH]c3ccccc23)c(Cl)c1` [Example 14] has a pIC50 of less than 6.00. With `N#Cc1cc(C(F)(F)F)ccc1N1CCC2(CC1)NCCc1c2[nH]c2ccccc12` [Example 10] the pIC50 was less than 6.00.
